Measurements published in PubChem BioAssay AID330 (DTP/NCI, 2004).
Values joined by “and” are separate entries in the source; they are usually repeats but may differ in a detail not shown here. Identical values can stand only once. Inconclusive results and toxic doses are left out. The calls were made as follows: active = survival T/C of 150% or more; inactive = T/C below 125% in these data.

Test system: P388 leukemia ip, CD2F1 mice, survival T/C
Assay: NCI In Vivo Anticancer Drug Screen. Data for tumor model P388 Leukemia (intraperitoneal) in CD2F1 (CDF1) mice
Settings: endpoint: median survival time, higher = longer survival
How it was run: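 Mice carrying the transplanted tumor received test compound or vehicle. Survival was recorded in each group, and the value is the treated-group measurement divided by that of the vehicle-treated control group.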

[1] = dose: 60.0 mg/kg/injection, schedule: Q01DX005 (ip), vehicle: Klucel (hydroxypropylcellulose) (HPC)
[2] = dose: 120.0 mg/kg/injection, schedule: Q01DX005 (ip), vehicle: Klucel (hydroxypropylcellulose) (HPC)
[3] = dose: 50.0 mg/kg/injection, schedule: Q01DX009 (ip), vehicle: saline
[4] = dose: 100.0 mg/kg/injection, schedule: Q01DX009 (ip), vehicle: saline
[5] = dose: 50.0 mg/kg/injection, schedule: Q01DX005 (ip), vehicle: saline with Tween-80
[6] = dose: 100.0 mg/kg/injection, schedule: Q01DX005 (ip), vehicle: saline with Tween-80
[7] = dose: 200.0 mg/kg/injection, schedule: Q01DX005 (ip), vehicle: saline with Tween-80
[8] = dose: 50.0 mg/kg/injection, schedule: Q01DX009 (ip), vehicle: Klucel (hydroxypropylcellulose) (HPC)
[9] = dose: 100.0 mg/kg/injection, schedule: Q01DX009 (ip), vehicle: Klucel (hydroxypropylcellulose) (HPC)
[10] = dose: 200.0 mg/kg/injection, schedule: Q01DX009 (ip), vehicle: Klucel (hydroxypropylcellulose) (HPC)
[11] = dose: 100.0 mg/kg/injection, schedule: Q01DX009 (ip), vehicle: saline with Tween-80
[12] = dose: 200.0 mg/kg/injection, schedule: Q01DX009 (ip), vehicle: saline with Tween-80
[13] = dose: 60.0 mg/kg/injection, schedule: Q01DX005 (ip), vehicle: saline with Tween-80
[14] = dose: 120.0 mg/kg/injection, schedule: Q01DX005 (ip), vehicle: saline with Tween-80
[15] = dose: 240.0 mg/kg/injection, schedule: Q01DX005 (ip), vehicle: saline with Tween-80
[16] = dose: 12.5 mg/kg/injection, schedule: Q04DX003 (ip), vehicle: saline with Tween-80
[17] = dose: 25.0 mg/kg/injection, schedule: Q04DX003 (ip), vehicle: saline with Tween-80
[18] = dose: 50.0 mg/kg/injection, schedule: Q04DX003 (ip), vehicle: saline with Tween-80
[19] = dose: 100.0 mg/kg/injection, schedule: Q04DX003 (ip), vehicle: saline with Tween-80
[20] = dose: 200.0 mg/kg/injection, schedule: Q04DX003 (ip), vehicle: saline with Tween-80
[21] = dose: 50.0 mg/kg/injection, schedule: Q01DX009 (ip), vehicle: saline with Tween-80
[22] = dose: 100.0 mg/kg/injection, schedule: Q01DX001 (ip), vehicle: saline
[23] = dose: 200.0 mg/kg/injection, schedule: Q01DX001 (ip), vehicle: saline
[24] = dose: 25.0 mg/kg/injection, schedule: Q01DX005 (ip), vehicle: Klucel (hydroxypropylcellulose) (HPC)
[25] = dose: 50.0 mg/kg/injection, schedule: Q01DX005 (ip), vehicle: Klucel (hydroxypropylcellulose) (HPC)

Measured: T/C

CCOc1c(N=Nc2ccc(Cl)cc2)c(C)nn1C(=S)S
inactive: [1] 96 % of control | [2] 97 % of control

N=C(N)c1ccc(N=Nc2ccc(N)cc2N)cc1
inactive: [1] 120 % of control | [2] 124 % of control

N#C/C(=C\c1ccc2c(c1)OCO2)C(=O)N/N=C/c1ccc2c(c1)OCO2
inactive: [3] 101 % of control | [4] 98 % of control | dose: 200.0 mg/kg/injection, schedule: Q01DX009 (ip), vehicle: saline 94 % of control

CS(=O)(=O)CC1=NC(=N)N=C1CS(C)(=O)=O
inactive: dose: 60.0 mg/kg/injection, schedule: Q01DX005 (ip), vehicle: saline 100 % of control | dose: 120.0 mg/kg/injection, schedule: Q01DX005 (ip), vehicle: saline 110 % of control | dose: 240.0 mg/kg/injection, schedule: Q01DX005 (ip), vehicle: saline 96 % of control

Nc1nnc2nc(CC(=O)c3cccc([N+](=O)[O-])c3)/c(=C/C(=O)c3cccc([N+](=O)[O-])c3)n12
inactive: [5] 94 % of control | [6] 91 % of control | [7] 101 % of control

COc1ccc(C(=O)/C=C/c2ccc(OC)c(OC)c2OCc2ccccc2)c(O)c1
inactive: dose: 100.0 mg/kg/injection, schedule: Q01DX001 (ip), vehicle: Klucel (hydroxypropylcellulose) (HPC) 94 % of control | dose: 200.0 mg/kg/injection, schedule: Q01DX001 (ip), vehicle: Klucel (hydroxypropylcellulose) (HPC) 88 % of control

CC1CN2C(=O)NC(=O)C1(c1ccccc1)C2=O (configuration not stated)
inactive: [8] 100 % of control | [9] 93 % of control | [10] 97 % of control

CN(C)CCNC1c2ccccc2-c2ccccc21
inactive: dose: 50.0 mg/kg/injection, schedule: Q01DX005 (ip), vehicle: saline 99 % of control | dose: 100.0 mg/kg/injection, schedule: Q01DX005 (ip), vehicle: saline 98 % of control | dose: 200.0 mg/kg/injection, schedule: Q01DX005 (ip), vehicle: saline 100 % of control

Cc1ccc(C(O)(CNC2CCCCC2)c2ccccc2)cc1 (configuration not stated)
inactive: dose: 25.0 mg/kg/injection, schedule: Q01DX009 (ip), vehicle: saline sonified 104 % of control | dose: 50.0 mg/kg/injection, schedule: Q01DX009 (ip), vehicle: saline sonified 104 % of control

Clc1ccc(OCSCOc2ccc(Cl)cc2Cl)c(Cl)c1
inactive: [8] 106 % of control | [9] 99 % of control | [10] 101 % of control

O=C(CS(=O)(=O)c1ccccc1)c1ccccc1
inactive: [9] 101 % of control | [10] 101 % of control | dose: 400.0 mg/kg/injection, schedule: Q01DX009 (ip), vehicle: Klucel (hydroxypropylcellulose) (HPC) 105 % of control

CC(=O)[C@H]1CC[C@H]2[C@@H]3CCC4=CC(=O)C=C[C@]4(C)[C@H]3C(=O)C[C@]12C
inactive: [11] 100 % of control | [12] 100 % of control | dose: 400.0 mg/kg/injection, schedule: Q01DX009 (ip), vehicle: saline with Tween-80 100 % of control

O=c1c(Br)cc2c(-c3ccccc3)c3cc(Br)c(O)c(Br)c3oc-2c1Br
inactive: [13] 97 % of control | [14] 97 % of control | [15] 110 % of control

C[Si](C)(C)CSC#N
inactive: dose: 7.5 mg/kg/injection, schedule: Q01DX005 (ip), vehicle: saline with Tween-80 97 % of control | dose: 15.0 mg/kg/injection, schedule: Q01DX005 (ip), vehicle: saline with Tween-80 101 % of control | dose: 30.0 mg/kg/injection, schedule: Q01DX005 (ip), vehicle: saline with Tween-80 104 % of control

Cc1nc2ccccc2nc1NNc1ccccc1
inactive: [5] 90 % of control | [6] 87 % of control | [7] 87 % of control

CCCCCCCCCCCCCCCCCCOP(=O)(CC(=O)NCc1cc(C(C)(C)C)c(O)c(C(C)(C)C)c1)OCCCCCCCCCCCCCCCCCC
inactive: [16] 96 % of control | [17] 101 % of control | [18] 92 % of control | [19] 86 % of control | [20] 100 % of control

CC(C)CC(=O)CC(c1ccccc1)C(C(=O)/C=C/c1ccccc1)C(C)C (configuration not stated)
inactive: dose: 12.5 mg/kg/injection, schedule: Q01DX005 (ip), vehicle: saline with Tween-80 94 % of control | dose: 25.0 mg/kg/injection, schedule: Q01DX005 (ip), vehicle: saline with Tween-80 94 % of control | [5] 87 % of control and 92 % of control

CCCN(CCC)CC(=O)Nc1c(Cl)cccc1Cl
inactive: dose: 25.0 mg/kg/injection, schedule: Q01DX009 (ip), vehicle: saline 100 % of control | [3] 110 % of control | [4] 105 % of control

CC(C)OC1CC(C)(C)c2c(-c3ccccc3)nn(-c3ccccc3)c2O1 (configuration not stated)
inactive: [21] 109 % of control | [11] 98 % of control | [12] 107 % of control

NCCNCCN1C(=O)c2cccc3cccc(c23)C1=O
inactive: [22] 110 % of control | [23] 86 % of control

CCOC(OCC)c1c(Cl)cccc1Cl
inactive: [11] 118 % of control | [19] 100 % of control | [12] 118 % of control | [20] 100 % of control | dose: 400.0 mg/kg/injection, schedule: Q04DX003 (ip), vehicle: saline with Tween-80 90 % of control

CCCCCCCC1(O)OC(=O)C(C)=C1C (configuration not stated)
inactive: [16] 101 % of control | [17] 108 % of control | [18] 100 % of control

COC1/C=C/OC2(C)Oc3c(C)c(O)c4c(O)c(c(/C=N/N(C)c5ncnc6c5ncn6C5OC(CO)C(O)C5O)c(O)c4c3C2=O)NC(=O)C(C)=C/C=C/C(C)C(O)C(C)C(O)C(C)C(OC(C)=O)C1C (configuration not stated)
inactive: [21] 100 % of control | [11] 102 % of control | [12] 102 % of control

CCCCCCCC/C=C/CCCCCCCC(=O)N(C)CCOC(=O)C(C)(C)C
inactive: [8] 122 % of control and 95 % of control | [9] 106 % of control and 120 % of control | [10] 103 % of control and 114 % of control

Clc1ccc2c(c1)nc(-c1ccccn1)n2CCc1ccncc1
inactive: [24] 100 % of control | [25] 95 % of control | dose: 100.0 mg/kg/injection, schedule: Q01DX005 (ip), vehicle: Klucel (hydroxypropylcellulose) (HPC) 99 % of control | dose: 200.0 mg/kg/injection, schedule: Q01DX005 (ip), vehicle: Klucel (hydroxypropylcellulose) (HPC) 99 % of control

CC1OC(n2cc(F)c(=O)[nH]c2=O)CC1O (configuration not stated)
inactive: dose: 50.0 mg/kg/injection, schedule: Q01DX001 (ip), vehicle: saline 104 % of control | [22] 106 % of control | [23] 105 % of control

Nc1nnc2nc(C(C(=O)c3ccccc3Cl)c3nc4nnc(N)n4[nH]c3=O)c(=O)[nH]n12
inactive: [13] 101 % of control | [14] 98 % of control | [15] 99 % of control

CC(=O)CCC1C(=O)N(C)C(=O)c2ccccc21 (configuration not stated)
inactive: [13] 98 % of control | [14] 99 % of control | [15] 91 % of control

CCN(CC)CCNc1ccc(C)c2oc3ccc(O)cc3c(=O)c12
inactive: dose: 12.5 mg/kg/injection, schedule: Q01DX005 (ip), vehicle: distilled water + Tween-80 106 % of control | dose: 25.0 mg/kg/injection, schedule: Q01DX005 (ip), vehicle: distilled water + Tween-80 106 % of control | dose: 50.0 mg/kg/injection, schedule: Q01DX005 (ip), vehicle: distilled water + Tween-80 117 % of control

CC(=O)OCC1=C(C)CC(C(C)C2CCC3C4CC5OC56C(OC(C)=O)C(N5CC5)CC(=O)C6(C)C4CCC23C)OC1=O (configuration not stated)
inactive: dose: 3.12 mg/kg/injection, schedule: Q01DX005 (ip), vehicle: Klucel (hydroxypropylcellulose) (HPC) 100 % of control | dose: 6.25 mg/kg/injection, schedule: Q01DX005 (ip), vehicle: Klucel (hydroxypropylcellulose) (HPC) 98 % of control | dose: 12.5 mg/kg/injection, schedule: Q01DX005 (ip), vehicle: Klucel (hydroxypropylcellulose) (HPC) 104 % of control | [24] 112 % of control | [25] 110 % of control
